≈ marks a conversion by molar mass, not a printed value. Read-outs that look alike come from different tables or passages of the source. Bridge positions count the residues as written; N and C are the ends. Square brackets hold non-standard residues; d marks the D form. Peptide text beside a SMILES is read from it. * marks the point of attachment. Ileψ(thiazoline)Cys = CC[C@H](C)[C@H](N)C1=N[C@H](C(=O)*)CS1; dOrn = NCCC[C@@H](N)C(=O)O; X1 = CC[C@H](C)CCCCC(=O)*; Dab = NCC[C@H](N)C(=O)O
Tests used:
[1] = tested on: C. pseudotuberculosis ΔlysX
[2] = tested on: C. pseudotuberculosis ΔalaDAGS

Compound	wt/ΔlysX (fold-change) [1]	MIC ΔlysX ([1]; 24 h)	MIC ΔalaDAGS ([2]; 24 h)	protective advantage conferred by lysX [1]	MIC ΔlysX [1]	MIC ΔalaDAGS [2]
CC[C@H](C)[C@H](N)C1=N[C@H](C(=O)N[C@@H](CC(C)C)C(=O)N[C@H](CCC(=O)O)C(=O)N[C@H](C(=O)N[C@H]2CCCCNC(=O)[C@H](CC(N)=O)NC(=O)[C@@H](CC(=O)O)NC(=O)[C@H](Cc3cnc[nH]3)NC(=O)[C@@H](Cc3ccccc3)NC(=O)[C@H]([C@@H](C)CC)NC(=O)[C@@H](CCCN)NC2=O)[C@@H](C)CC)CS1 [Bacitracin] ({Ileψ(thiazoline)Cys}-L[dE]IK[dOrn]I[dF]H[dD]N; lactam 4-C (inferred); N-terminus assumed)	2 fold-change	3.2 µg/mL (≈ 2.25 µM)	6.4 µg/mL (≈ 4.5 µM)			
CO/N=C(\C(=O)N[C@@H]1C(=O)N2C(C(=O)O)=C(CSc3nc(=O)c(=O)[nH]n3C)CS[C@H]12)c1csc(N)n1 [Ceftriaxone]				no protective advantage		
CNC(C)C1CCC(N)C(OC2C(N)CC(N)C(OC3OCC(C)(O)C(NC)C3O)C2O)O1 (stereo not shown) [Gentamicin]					0.078 µg/mL (≈ 0.163 µM)	
NC[C@H]1O[C@H](O[C@H]2[C@H](O)[C@@H](O[C@H]3O[C@H](CO)[C@@H](O)[C@H](N)[C@H]3O)[C@H](N)C[C@@H]2N)[C@H](O)[C@@H](O)[C@@H]1O [Kanamycin]	8 fold-change				1.25 µg/mL (≈ 2.58 µM)	10 µg/mL (≈ 20.6 µM)
CC[C@H](C)[C@H](NC(=O)CN)C(=O)NCC(=O)N[C@@H](C)C(=O)N[C@H](C(=O)N[C@@H](CC(C)C)C(=O)N[C@@H](CCCCN)C(=O)N[C@H](C(=O)N[C@@H](CC(C)C)C(=O)N[C@H](C(=O)N[C@H](C(=O)NCC(=O)N[C@@H](CC(C)C)C(=O)N1CCC[C@H]1C(=O)N[C@@H](C)C(=O)N[C@@H](CC(C)C)C(=O)N[C@H](C(=O)N[C@@H](CO)C(=O)N[C@@H](Cc1c[nH]c2ccccc12)C(=O)N[C@H](C(=O)N[C@@H](CCCCN)C(=O)N[C@@H](CCCNC(=N)N)C(=O)N[C@@H](CCCCN)C(=O)N[C@@H](CCCNC(=N)N)C(=O)N[C@@H](CCC(N)=O)C(=O)N[C@@H](CCC(N)=O)C(N)=O)[C@@H](C)CC)[C@@H](C)CC)[C@@H](C)O)[C@@H](C)O)C(C)C)C(C)C [Melittin]	>4 fold-change	10 µg/mL (≈ 3.51 µM)	>40 µg/mL			
CC[C@H](C)CCCCC(=O)N[C@@H](CCN)C(=O)N[C@H](C(=O)N[C@@H](CCN)C(=O)N[C@H]1CCNC(=O)[C@H]([C@@H](C)O)NC(=O)[C@H](CCN)NC(=O)[C@H](CCN)NC(=O)[C@H](CC(C)C)NC(=O)[C@@H](Cc2ccccc2)NC(=O)[C@H](CCN)NC1=O)[C@@H](C)O [Polymyxin B] (X1-[Dab]T[Dab][Dab][Dab][dF]L[Dab][Dab]T; lactam 4-C (inferred); N-terminus assumed)		10 µg/mL (≈ 8.31 µM)	640 µg/mL (≈ 532 µM)			
CCCNC[C@]1(O)[C@H](C)O[C@@H](O[C@H]2[C@H](C)[C@@H](O[C@@H]3O[C@H](C)C[C@H](N(C)C)[C@H]3O)[C@](C)(O)C[C@@H](C)CN[C@H](C)[C@@H](O)[C@](C)(O)[C@@H](CC)OC(=O)[C@@H]2C)C[C@@]1(C)OC [Tulathromycin]	2 fold-change				1.25 µg/mL (≈ 1.55 µM)	2.5 µg/mL (≈ 3.1 µM)
CN[C@H](CC(C)C)C(=O)N[C@H]1C(=O)N[C@@H](CC(N)=O)C(=O)N[C@H]2C(=O)N[C@H]3C(=O)N[C@H](C(=O)N[C@H](C(=O)O)c4cc(O)cc(O)c4-c4cc3ccc4O)[C@H](O)c3ccc(c(Cl)c3)Oc3cc2cc(c3O[C@@H]2O[C@H](CO)[C@@H](O)[C@H](O)[C@H]2O[C@H]2C[C@](C)(N)[C@H](O)[C@H](C)O2)Oc2ccc(cc2Cl)[C@H]1O [Vancomycin]	2 fold-change	0.375 µg/mL (≈ 0.259 µM)	0.75 µg/mL (≈ 0.518 µM)			
Nisin	32 fold-change				2.5 µg/mL	80 µg/mL
